The record followed here is US20200078379A1, “DEFEROXAMINE DERIVATIVES AS MEDICAMENTS” (BIOTECHNOLOGICKY USTAV AV CR, V.V.I., priority 2017, published 2020).

pIC50: −log10 of the molar value. Read-outs that look alike come from different tables or passages of the source.

The pIC50 is −log10 of the IC50, conventionally taken in molar units.

Assay [1] deals with murine triple negative breast cancer cell line 4T1. Kind of assay: crystal violet assay, cellular viability. Particulars: Mus musculus, 4T1, 48 hours. The class given is cell-based. The protocol: (§1) Compound 1 and compound 2 were tested in their efficacy to kill malignant MCF7 cancer cells. Briefly, 10.000 cells per well were seeded in a 96-well plat on one day and the next day selected compounds were added and incubated with the cells for 48 hrs. The cells were then fixed with 4% paraformaldehyde, stained with 0.05% crystal violet, washed with PBS, and solubilized in 1% SDS. The absorbance of the plate at 595 nm was then measured, quantifying the number of viable cells.
(§2) A number of compounds of the present invention were tested for cytotoxicity towards at least some of human breast cancer cell lines (MCF7, MDA-MB-231), human fibroblast (BJ) and murine triple negative breast cancer cell line 4T1 (Table 2).

The test system of assay [2] is MDA-MB-231 cells. The assay is described as follows: crystal violet assay, cellular viability. The class given is cell-based, human. To be noted: Homo sapiens, read-out: IC50 cellular viability. The procedure: as §1, §2
Assay [3] has as its system MCF7 cells. The assay is described as follows: crystal violet assay, cellular viability. To be noted: for pIC50: MCF7, 48 h, read-out: IC50 cellular viability. The class given is cell-based, human. The protocol:
as §1, §2

The subject of assay [4] is MCF7 cells. The assay is described as follows: AnnexinV/PI cell death assay. The class given is cell-based, human. The protocol: Briefly, cells were seeded in 12-well plate at 100,000 per well, incubated with the selected compounds for 48 hours, then floating cells were spun, adherent cells trypsinized and spun as well followed by the staining with AnnexinV-FITC and PI probes. Cells were then washed with PBS and measured via Fluorescence Activated Sorter.

Assay [5] deals with non malignant cells (BJ), human fibroblast. Kind of assay: crystal violet assay, cellular viability. The class given is cell-based. The protocol:
as §1, §2

For assay [6], the system named is T47D cells. Kind of assay: crystal violet assay, cellular viability. The class given is cell-based. Particulars: 48 hours.
The test system of assay [7] is MDA-MB-231 cells. Kind of assay: AnnexinV/PI cell death assay. The class given is cell-based, human. To be noted: MDA-MB-231, 200 μM, 48 hrs. The protocol:
(§3) To confirm such findings by an independent method, cell death-inducing potency (cytotoxic efficacy) of DFO and compound 2 have been tested via annexin V/PI staining commonly used as a measure of apoptotic/necrotic cell death. Briefly, cells were seeded in 12-well plate at 100,000 per well, incubated with the selected compounds for 48 hours, then floating cells were spun, adherent cells trypsinized and spun as well followed by the staining with AnnexinV-FITC and PI probes. Cells were then washed with PBS and measured via Fluorescence Activated Sorter.

The test system of the next assay is non malignant cells (BJ). Kind of assay: AnnexinV/PI cell death assay. The class given is cell-based. The procedure: as §3
We have then analyzed the percentage of death cells by the annexinV/PI staining as described in example 7. We have observed a significant potentiation in cell death induction when gallium was combined with compound 2 (Table 14)

Another assay has as its system BT549 cells. Kind of assay: AnnexinV/PI cell death assay. The class given is cell-based. Particulars: BT549, 200 μM, 48 hrs. The protocol: as §3
A further assay relates to BT474 cells. Kind of assay: AnnexinV/PI cell death assay. The class given is cell-based. Particulars: BT474, 200 μM, 48 hrs. The protocol: as §3
Assay [8] has as its system MCF7 cells. Kind of assay: cellular proliferation in real time, Xcelligence technology. The class given is cell-based. The protocol:
The ability of compound 2 to affect the proliferation and cell death induction in real time was monitored by the Xcelligence technology that detects changes in electrical impedance related to the cell number. In brief, special 16-well e-plates containing gold electrodes were filled with medium, blank values were recorded, and then 5.000 cells per well were seeded in the plate and let to attach for 2 hours, followed by the addition of compounds. The electrical impedance was then monitored over time in real-time every 15 minutes. In this case a line is drawn that reflects the cell number over time. […] We have seen a clear inhibition of proliferation with compound 2 at 1 μM, complete block of proliferation at 2 μM concentration, while the cytotoxic effect is seen at 5 μM (Table 9).

Assay [9] has as its system T47D cells. Kind of assay: AnnexinV/PI cell death assay. Particulars: 200 μM, 48 hrs. The class given is cell-based. The protocol: as §3
Since compound 2 is an iron chelator, we have evaluated the effect of pretreating compound 2 with iron. at a 1:1 ratio by using the Annexin V/PI staining as in example 7.

The test system of assay [10] is pancreatic cell line BxPC3. The assay is described as follows: dose-effect relationship of drugs and mixtures, crystal violet assay, Median-Effect / Combination index. The class given is cell-based. To be noted: 48 hours. The protocol:
(§4) The potentiation of cytotoxic effect of compound 2 in combination with several cytostatics was evaluated. The dose-effect relationship of individual drugs and mixtures of compound 2 with paclitaxel, cis Pt (cis-platin), doxorubicin and fluorouracil was determined on human mammary gland cancer cell line MDA-MB-231 and pancreatic cell line BxPC3 by means of crystal violet assay. The linearized Median-Effect Plot of dose response line provided both parameters (IC50; trend line m(slope) value) of Median-Effect Equation for individual and combination treatment [ref: Theoretical basis, experimental design, and computerized simulation of synergism and antagonism in drug combination studies; Ting-Chao Chou: Pharmacol Rev. 58(3), 2006, 621-81; Erratum in Pharmacol Rev. 2007; 59(1), 124]:
(§5) Potentiation of combination effect of compound 2 was expressed for concentrations IC50, IC75, IC90, IC95 by calculation of Combination index (CI) applying Combination Index Theorem for mutually exclusive drugs. Overall CI was expressed by means of weighted average of IC50, IC75, IC90, IC95 [ref: Quantitative analysis of dose-effect relationships: the combined effects of multiple drugs or enzyme inhibitors; Ting-Chao Chou, Paul Talalay: Advances in Enzyme Regulation, Volume 22, 1984, Pages 27-55]: […]

For assay [11], the system named is human mammary gland cancer cell line MDA-MB-231. Described as above. The class given is cell-based. The protocol: as §4, §5
Where [12] appears, read: MDA-MB-231, 48 hours, crystal violet.

As for `CC(=O)N(O)CCCCCNC(=O)CCC(=O)N(O)CCCCCNC(=O)CCC(=O)N(O)CCCCCN(Cc1cnnn1CCCCCCCCCC[P+](c1ccccc1)(c1ccccc1)c1ccccc1)Cc1cnnn1CCCCCCCCCC[P+](c1ccccc1)(c1ccccc1)c1ccccc1` [Compound 20, Triphenyl(10-(5-(8,19,30-trihydroxy-9,12,20,23,31-pentaoxo-2-((1-(10-(triphenylphosphonio)decyl)-1H-1,2,3-triazol-5-yl)methyl)-2,8,13,19,24,30-hexaazadotriacontyl)-1H-1,2,3-triazol-1-yl)decyl)phosphonium], the pIC50 in [1] was 5.66.
Take `CC(=O)N(O)CCCCCNC(=O)CCC(=O)N(O)CCCCCNC(=O)CCC(=O)N(O)CCCCCN(CCCCCCCCCC[P+](Cc1ccccc1)(Cc1ccccc1)Cc1ccccc1)CCCCCCCCCC[P+](Cc1ccccc1)(Cc1ccccc1)Cc1ccccc1` [Compound 9, 2,2-dibenzyl-19,30,41-trihydroxy-20,23,31,34,42-pentaoxo-1-phenyl-13410-(tribenzylphosphonio)decyl)-13,19,24,30,35,41-hexaaza-2-phosphatritetracontane-2,13-diium trichloride]: the negative logarithm of the IC50 (pIC50) in assay [1] is 5.74; in the assay on MDA-MB-231 cells [2] (MDA-MB-231, 48 h), 6.10; in the assay with MCF7 cells [3] (Homo sapiens, crystal violet), 6.05.
For the molecule `CC(=O)N(O)CCCCCNC(=O)CCC(=O)N(O)CCCCCNC(=O)CCC(=O)N(O)CCCCCN(CCCCCCCCCCCC[P+](c1ccccc1)(c1ccccc1)c1ccccc1)CCCCCCCCCCCC[P+](c1ccccc1)(c1ccccc1)c1ccccc1` [Compound 8, Triphenyl(3,14,25-trihydroxy-2,10,13,21,24-pentaoxo-31-(12-(triphenylphosphonio)dodecyl)-3,9,14,20,25,31-hexaazatritetracontan-31-ium-43-yl)phosphonium trichloride], the pIC50 in [1] was 5.92; with MDA-MB-231 cells [2] (MDA-MB-231, 48 h) it was 6.22; in the assay with MCF7 cells [3] (Homo sapiens, crystal violet) it was 6.30.
On to `CCCC[P+](CCCC)(CCCC)CCCCCCCCCCN(CCCCCCCCCC[P+](CCCC)(CCCC)CCCC)CCCCCN(O)C(=O)CCC(=O)NCCCCCN(O)C(=O)CCC(=O)NCCCCCN(O)C(C)=O` [Compound 6, 42,42-dibutyl-3,14,25-trihydroxy-2,10,13,21,24-pentaoxo-31-(10-(tributylphosphonio)decyl)-3,9,14,20,25,31-hexaaza-42-phosphahexatetracontane-31,42-diium trichloride], for which the pIC50 in assay [1] was 5.31; in the assay with MDA-MB-231 cells [2] (setting [12]), 5.55; in the assay with MCF7 cells [3] (Homo sapiens, crystal violet), 5.52.
For `CCCCCCCC[P+](CCCCCCCC)(CCCCCCCC)CCCCCCCCCCN(CCCCCCCCCC[P+](CCCCCCCC)(CCCCCCCC)CCCCCCCC)CCCCCN(O)C(=O)CCC(=O)NCCCCCN(O)C(=O)CCC(=O)NCCCCCN(O)C(C)=O` [Compound 10, 3,14,25-trihydroxy-42,42-dioctyl-2,10,13,21,24-pentaoxo-31-(10-(trioctylphosphonio)decyl)-3,9,14,20,25,31-hexaaza-42-phosphapentacontane-31,42-diium trichloride], in that order: 5.89, 6.15 and 6.10.
Turning to `CC(=O)N(O)CCCCCNC(=O)CCC(=O)N(O)CCCCCNC(=O)CCC(=O)N(O)CCCCCN` [DFO, deferoxamine], the “mean percentage of dead cells (AnnexinV/PI)” value in the assay on MCF7 cells [4] (MCF7, 200 μM, 48 hrs) is reported as 45.0%; with MDA-MB-231 cells [7], 22.4%; with non malignant cells (BJ) (200 μM, 48 hrs), 10.5%; in the assay on BT549 cells it was 18.3%; with BT474 cells it was 19.2%; with T47D cells [9], 14.1 (7.2) %. Besides, the “Selectivity index (IC50 non-malignant/IC50 malignant)” value in assay [5] (BJ vs BJ (reference)) is given as 1; in the assay with T47D cells [6] (BJ vs T47D), 0.80; with MCF7 cells [3] (BJ vs MCF7, 48 hours), 1.72. Further, the pIC50 in assay [5] (Homo sapiens, Fibroblast, BJ non malignant, 48 hours, crystal violet) is 3.66; in the assay with T47D cells [6] (Homo sapiens, T47D, crystal violet, read-out: IC50 cellular viability), 3.56. In the assay with MCF7 cells [3] (Homo sapiens, MCF7, 2 μM, 48 hrs, crystal violet, read-out: mean percentage of viable cells compared to non-treated controls), the viability at 2 µM is 92%. For the same molecule, in the assay with MCF7 cells [3] (Homo sapiens, MCF7, 5 μM, 48 hrs, crystal violet, read-out: mean percentage of viable cells compared to non-treated controls), the viability at 5 µM worked out at 95.9%. Moreover, the viability at 10 µM with MCF7 cells [3] (Homo sapiens, MCF7, 10 μM, 48 hrs, crystal violet, read-out: mean percentage of viable cells compared to non-treated controls) came out at 92.2%. Moreover, the “slope of the line (relative number of cells in relation to time)” value in the assay on MCF7 cells [8] (MCF7, 0-15 h, 1 μM) was 1.02; in the assay on MCF7 cells [8] (MCF7, 0-15 h, 2 μM) it was 1.12; with MCF7 cells [8] (MCF7, 0-15 h, 5 μM), 1.01; in the assay on MCF7 cells [8] (MCF7, 0-36 h, 1 μM) it was 1.31; in the assay on MCF7 cells [8] (MCF7, 0-36 h, 2 μM), 1.53; in the assay with MCF7 cells [8] (MCF7, 0-36 h, 5 μM), 0.50.
For `N.N.[Cl][Pt][Cl]` [cis Pt, cis-platin], the “Median-Effect Plot parameter m (slope)” value in assay [10] is recorded as 1.59; in assay [11] (MDA-MB-231, crystal violet, 48 hours) it was 1.4574. Moreover, the pIC50 in assay [10] (read-out: Median-Effect Plot parameter IC50) was 5.38; in [11] (MDA-MB-231, crystal violet, 48 hours, Chou-Talalay method, read-out: Median-Effect Plot parameter IC50) it was 4.66. Besides, in [11] (MDA-MB-231), the “concentration of the cytostatic at IC75, cytostatic alone” value stood at 42.2751 µM.
With `[Cl][Ga]([Cl])[Cl]` [GaCl3, gallium chloride, reference compound], the “percentage of death cells by annexinV/PI staining” value with MCF7 cells [4] (MCF7, ratio Ga:compound 2 1:0, 5 μM gallium salt alone) is on record as 5.9 (2.5); with non malignant cells (BJ) (ratio Ga:compound 2 1:0, 5 μM gallium salt alone), 2.4 (0.1).
Regarding `CC(=O)N(O)CCCCCNC(=O)CCC(=O)N(O)CCCCCNC(=O)CCC(=O)N(O)CCCCCN(CCCCCCCCCC[P+](C1CCCCC1)(C1CCCCC1)C1CCCCC1)CCCCCCCCCC[P+](C1CCCCC1)(C1CCCCC1)C1CCCCC1` [Compound 4, Tricyclohexyl(3,14,25-trihydroxy-2,10,13,21,24-pentaoxo-31-(10-(tricyclohexylphosphonio)decyl)-3,9,14,20,25,31-hexaazahentetracontan-31-ium-41-yl) phosphonium trichloride], the pIC50 in assay [1] was 5.74; in the assay with MDA-MB-231 cells [2] (MDA-MB-231, 48 h) it was 5.89; in the assay with MCF7 cells [3] (Homo sapiens, crystal violet), 6.15.
